Here are results for two sequences from paper PMC11727143, “Peptide-Mediated Transport Across the Intact Tympanic Membrane Is Intracellular, with the Rate Determined by the Middle Ear Mucosal Epithelium” (Biomolecules, 2024).

The test system of series [1] is tympanic membrane (TM) cells. In words: Confocal imaging of immunolabeled phage within the tympanic membrane after one-hour application to the external TM surface in vivo. Set-up: species or system Sprague Dawley rats. Here is the method: Rodent cocktail (2.0 mg/kg xylazine and 40.0 mg/kg ketamine i.m.) was employed for anesthesia. The ME bulla was exposed via a ventral midline neck incision. A 25 g needle was used to make a small opening in the bullar bone, through which 5 × 10^4 CFUs of nontypeable Haemophilus influenzae (NTHi) type 3655 [20] was injected, in 50 μL of BHI media using a 30 g needle. Care was taken to avoid damaging the tympanic membrane, ossicles, or inner ear. Animals survived for 48 h to allow for an ME infection to develop, which was confirmed by TM visualization. Phages were then applied to the external TM surface in vivo for one hour in 10^9 PFUs ([…] forming units) in 10 μL of PBS, ensuring the entire surface of the membrane was covered.
For confocal microscopy, TMT3 and WT phages were employed. The animal was sacrificed, the phage solution removed, and the TM washed 3× with PBS to remove any remaining phage solution, then 2× with acid wash to remove phages bound to the TM, followed by 2× with PBS. The bulla was then dissected and opened, the interior TM surfaces were washed as above, and the TM was fixed in cold 4% PFA overnight. The TM was dissected from the annular bone and additionally washed 2× with PBS, and the manubrium of the malleus carefully removed. The membrane was incubated in tissue-penetration and blocking solution (5% Triton X and 10% fetal bovine serum (FBS) in PBS) for one hour at room temperature. The TMs were again washed 2× in PBS and incubated in primary antibody (M13 anti-phage coat protein, rabbit polyclonal antibody, Invitrogen PA1-26758, 1:100) overnight at 4 °C. TMs were washed 2× in PBS and incubated with a secondary antibody (FITC-labeled anti-rabbit, Jackson Immuno, 711-095-152) previously treated with DyLight 405 stain for enhanced visualization (Jackson Immuno 711-475-152) at 1:100 concentration for three hours at room temperature with light protection. TMs were again washed with PBS 2× and stained with DAPI (Novus NPB2-31156, 1:1000, 30 min at room temperature with light protection). Some TMs were also incubated with Texas Red-X Phalloidin (Invitrogen T7471, F-actin staining) at 1:500 concentration for one and one-half hours at room temperature and light protection to stain actin. After incubations, TMs were washed 2× with PBS and mounted with the external surface uppermost using antifade, hard-mount media (Vectashield, VectaLabs H-1400). Control TMs were exposed for 1 h to PBS in vivo and then identically treated.
The localization of the phage was evaluated via fluorescence confocal microscopy. TMs were imaged on a Leica SP8 Confocal with Lightning-adaptive deconvolution or an Olympus FV1000 Confocal with SIM Scanner, and 60× and 100× image stacks were generated for rendering of stained TMs. Image stacks were post-processed using Velocity high-performance software to generate images. Separate portions of the stacks were used to visualize phages in the external epithelium, the middle fibrous layer, and the inner mucosal epithelium.

In series [2] the test system is tympanic membrane (TM). In words: Titer of phage recovered from within the TM (homogenate) after one-hour application to the external TM surface. The class given is in vivo, Sprague Dawley rats. Conditions: 10^9 PFU in 10 μL PBS, six infected rats, PBS and 0.2 M glycine acid wash (pH 2.2), TM homogenized, titered on E. coli, mean of six. On the procedure:
Each peptide phage was applied to the external TM surface (10^9 PFU in 10 μL of PBS) of six previously infected rats, ensuring that the entire membrane surface was covered for one hour.

In series [3] the test system is tympanic membrane (TM). The following applies: recovery from ME lumen after one-hour application to external TM surface; cited from earlier work. Here is the method:
Each peptide phage was applied to the external TM surface (10^9 PFU in 10 μL of PBS) of six previously infected rats, ensuring that the entire membrane surface was covered for one hour. The phage solution was removed from the ex ...

The mark [4] stands for this setting: NTHi-infected ME, 10^9 PFU in 10 μL PBS, one hour, confocal, ImageJ count.

On to SADSTKTTHLTL [TMT3], for which, in series [1] (NTHi-infected ME, 10^9 PFU in 10 μL PBS on external TM surface, one hour, anti-M13 immunolabel, confocal, ImageJ count, s.d. 43.1), the “mean number of puncta per cell, external epithelium of the TM” value worked out at 139.2 puncta per cell. Also, in series [1] (setting [4]), the “median number of puncta per cell, external epithelium of the TM” value was determined as 110 puncta per cell and the “median number of puncta per cell, inner mucosal epithelium of the TM” value is 23 puncta per cell. In addition, the “mean number of puncta per cell, inner mucosal epithelium of the TM” value in series [1] (NTHi-infected ME, 10^9 PFU in 10 μL PBS, one hour, confocal, ImageJ count, significantly less than external epithelium (p 0.002)) is 42.9 (s.d. 44.8) puncta per cell. In addition, in series [1] (one-hour application, confocal, ImageJ count), the “phage content of the cells with the highest numbers (mucosal cells comparable to external epithelium)” value is 200–250 puncta/cell. The “presence of phage within TM cells by immunolabeling (in words)” value in series [1] (one-hour incubation on the external canal TM surface, confocal imaging) is “clearly intracellular and are restricted to the cell cytoplasm”. For the same sequence, the “phage titer recovered from within the TM (in words)” value in series [2] was “higher than that of TMT3 (18)-1”. Also, the “trans-TM transport rate (in words)” value in series [3] was “high transport rate”.
As to TLSPKMPGGGYW [TMT2], the “phage titer recovered from within the TM (in words)” value in series [2] was “significantly higher than those of TMT3”. In addition, the “trans-TM transport rate (in words)” value in series [3] is reported as “low transport rate”.
